Assay results published in patent EP4678638A1, “NEW E3 UBIQUITIN LIGASE LIGAND, PROTEIN DEGRADATION AGENT AND USE THEREOF” (priority 2023, dated 2024).

Columns and labels:
MCF7 = experiment: CCK-8 proliferation, MCF7 (MCF-7); type: cell-based; settings: Homo sapiens, MCF7; CCK-8; read-out: Inhibitory activity (IC50) on tumor cell proliferation, MCF7
Outline: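 Cells seeded, then after 24 h treated with 10 concentrations (top 10 µM, 5-fold serial dilution) for a line-specific time at 37°C, 5% CO2. Viability read by CCK-8; IC50 fitted from growth-inhibition curves.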

CDK6 = target: T1, CDK6 (Homo sapiens, UniProt Q00534); experiment: Western blot degradation of CDK6 (MDA-MB-231 Cell); type: cell-based; settings: Table D3
T1 construct: evaluate the effects of the compounds of the present disclosure on the expression of target proteins in cells; endogenous in cells; host or cells: MDA-MB-231
Description: (§1) Conventional Western blot assay was performed to evaluate the effects of the compounds of the present disclosure on the expression of target proteins in cells.
(§2) (1) Cell Seeding and Protein Harvesting: The selected cells were processed according to the cell seeding procedure and protein harvesting procedure in Table III-2. Table III-2 Cell Seeding and Protein Harvesting Procedures
(§3) (2) To the collected supernatant, 5X SDS sample loading buffer was added, followed by denaturation at 95°C for 5 minutes. The denatured samples were then separated by SDS-PAGE electrophoresis on a polyacrylamide gel. Proteins were transferred to a nitrocellulose membrane (0.45 µm NC membrane), blocked with blocking buffer at room temperature for 1 hour, and subjected to antibody incubation and development procedures according to the antibody manufacturer's instructions (Cell Signaling Technology).
(§4) Half-Maximal Degradation Concentration value (the drug concentration required for degrading proteins by 50%, abbreviated as DC50) reads method: comparing the grayscale values of Western blot bands from drug-treated samples with those from blank DMSO-treated controls, and identifying the drug concentration range at which the grayscale value is half that of the DMSO-treated control bands.
(§5) DC50 values can be calculated using ImageJ software to measure grayscale values of Western blot bands from drug-treated samples. The concentration-response curve is fitted to estimate the drug concentration corresponding to half the grayscale value.
(§6) Target protein remaining (%) refers to the percentage of target protein remaining in hPBMC cells after treatment with protein degrader compounds.
(§7) Calculation method for target protein remaining (%): Use ImageJ software to measure grayscale values of Western blot bands from drug (protein degrader)-treated samples. The grayscale value of drug-treated bands is divided by that of internal control protein bands, and the resulting quotient is normalized to obtain the relative percentage of remaining target protein after protein degrader treatment.
(§8) Target protein degradation rate (%) = 100% - target protein remaining (%).

CDK4 = target: T2, CDK4 (Homo sapiens, UniProt P11802); experiment: Western blot degradation of CDK4 (MDA-MB-231 Cell); type: cell-based; settings: Table D3
T2 construct: evaluate the effects of the compounds of the present disclosure on the expression of target proteins in cells; endogenous in cells; host or cells: MDA-MB-231
Description: as §1, §2, §3, §4, §5, §6, §7, §8

[1] = target: T3, human Cereblon WT GST-tagged protein (Homo sapiens, UniProt Q96SW2); experiment: CRBN binding, HTRF (CEREBLON BINDING kit); settings: Table II-2, CRBN binding screening, HTRF; for inhibition at 0.5 µM: read-out: Inhibition rate (%) at 0.5µM; for inhibition at 2 µM: read-out: Inhibition rate (%) at 2 µM
T3 construct: purchased CISBIO 64BDCRBNPEH
Outline: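 Competitive HTRF: GST-tagged human WT Cereblon mixed with compound, Thalidomide-Re tracer and GST Eu antibody, incubated 3 h at room temperature. Signals read at 620 and 665 nm.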

T3 sequence (Q96SW2 whole entry): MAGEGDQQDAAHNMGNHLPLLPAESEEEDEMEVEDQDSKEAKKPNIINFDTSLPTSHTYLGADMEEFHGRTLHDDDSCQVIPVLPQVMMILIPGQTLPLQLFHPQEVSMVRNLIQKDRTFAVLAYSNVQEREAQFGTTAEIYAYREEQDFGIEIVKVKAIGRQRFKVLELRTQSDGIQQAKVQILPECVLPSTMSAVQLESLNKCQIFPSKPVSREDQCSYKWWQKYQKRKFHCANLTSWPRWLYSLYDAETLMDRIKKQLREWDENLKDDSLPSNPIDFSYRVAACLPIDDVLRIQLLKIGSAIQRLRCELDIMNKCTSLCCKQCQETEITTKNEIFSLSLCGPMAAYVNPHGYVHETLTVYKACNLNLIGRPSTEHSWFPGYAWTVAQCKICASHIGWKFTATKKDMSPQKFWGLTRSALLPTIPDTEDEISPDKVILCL
T1 sequence (Q00534 whole entry): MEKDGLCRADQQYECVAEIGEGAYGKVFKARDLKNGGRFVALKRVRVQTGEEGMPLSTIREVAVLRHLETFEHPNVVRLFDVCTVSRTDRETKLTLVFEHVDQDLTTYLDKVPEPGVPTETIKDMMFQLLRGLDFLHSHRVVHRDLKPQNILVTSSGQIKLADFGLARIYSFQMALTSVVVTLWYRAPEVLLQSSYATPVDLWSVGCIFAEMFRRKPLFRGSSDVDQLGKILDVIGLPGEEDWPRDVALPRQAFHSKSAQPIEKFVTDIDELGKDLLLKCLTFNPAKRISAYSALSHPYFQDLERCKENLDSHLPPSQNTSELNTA
T2 sequence (P11802 whole entry): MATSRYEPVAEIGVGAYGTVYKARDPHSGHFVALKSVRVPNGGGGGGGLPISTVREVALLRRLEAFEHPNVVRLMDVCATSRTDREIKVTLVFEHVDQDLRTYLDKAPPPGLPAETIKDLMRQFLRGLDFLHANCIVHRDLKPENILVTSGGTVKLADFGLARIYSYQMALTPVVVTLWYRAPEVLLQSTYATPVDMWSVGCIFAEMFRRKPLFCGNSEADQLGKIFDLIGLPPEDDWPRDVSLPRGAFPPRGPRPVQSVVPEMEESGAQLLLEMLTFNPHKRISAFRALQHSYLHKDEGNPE

SMILES | IC50 (MCF7) | Degradation of substrate protein CDK6 (substrate protein remaining %) (CDK6) | Degradation of substrate protein CDK4 (substrate protein remaining %) (CDK4) | inhibition at 0.5 µM [1] | inhibition at 2 µM [1]
CC(=O)c1c(C)c2cnc(Nc3ccc(N4CCN(Cc5ccc(C6CCC(=O)NC6=O)cc5)CC4)cn3)nc2n(C2CCCC2)c1=O (centres unmarked) [GT-06575, 3-(4-((4-(6-((6-acetyl-8-cyclopentyl-5-methyl-7-oxo-7,8-dihydropyrido[2,3-d]pyrimidin-2-yl)amino)pyridin-3-yl)piperazin-1-yl)methyl)phenyl)piperidine-2,6-dione] | 100 to 500 nM | A (A is defined as 0% ≤ substrate protein remaining % ≤ 80%) | A (A is defined as 0% ≤ substrate protein remaining % ≤ 80%) | – | –
CC(=O)c1c(C)c2cnc(Nc3ccc(N4CCN(Cc5ccc(N6CCC(=O)NC6=O)cn5)CC4)cn3)nc2n(C2CCCC2)c1=O [GT-06578, 1-(6-((4-(6-((6-acetyl-8-cyclopentyl-5-methyl-7-oxo-7,8-dihydropyrido[2,3-d]pyrimidin-2-yl)amino)pyridin-3-yl)piperazin-1-yl)methyl)pyridin-3-yl)dihydropyrimidine-2,4(1H,3H)-dione] | 500 to 1000 nM | A (A is defined as 0% ≤ substrate protein remaining % ≤ 80%) | B (B is defined as substrate protein remaining % > 80%) | – | –
CC(=O)c1c(C)c2cnc(Nc3ccc(N4CCN(Cc5cccc(NC6CCC(=O)NC6=O)c5)CC4)cn3)nc2n(C2CCCC2)c1=O (centres unmarked) [GT-06580, 3-((3-((4-(6-((6-acetyl-8-cyclopentyl-5-methyl-7-oxo-7,8-dihydropyrido[2,3-d]pyrimidin-2-yl)amino)pyridin-3-yl)piperazin-1-yl)methyl)phenyl)amino)pip eridine-2,6-dione] | 500 to 1000 nM | A (A is defined as 0% ≤ substrate protein remaining % ≤ 80%) | B (B is defined as substrate protein remaining % > 80%) | – | –
CN(C)C(=O)c1cc2cnc(Nc3ccc(N4CCN(Cc5cncc(N6CCC(=O)NC6=O)c5)CC4)cn3)nc2n1C1CCCC1 [GT-07476, 7-cyclopentyl-2-((5-(4-((5-(2,4-dioxotetrahydropyrimidin-1(2H)-yl)pyridin-3-yl)methyl)piperazin-1-yl)pyridin-2-yl)amino)-N,N-dimethyl-7H-pyrrolo[2,3-d]pyrimidine-6-carboxamide] | – | A (A is defined as 0% ≤ substrate protein remaining % ≤ 80%) | A (A is defined as 0% ≤ substrate protein remaining % ≤ 80%) | 30 to 40% | 60 to 80%
CN(C)C(=O)c1cc2cnc(Nc3ccc(N4CCN(Cc5ccc(C6CCC(=O)NC6=O)cn5)CC4)cn3)nc2n1C1CCCC1 (centres unmarked) [GT-07477, 7-cyclopentyl-2-((5-(4-((5-(2,6-dioxopiperidin-3-yl)pyridin-2-yl)methyl)piperazin-1-yl)pyridin-2-yl)amino)-N,N-dimethyl-7H-pyrrolo[2,3-d]pyrimidine-6-carboxamide] | – | A (A is defined as 0% ≤ substrate protein remaining % ≤ 80%) | A (A is defined as 0% ≤ substrate protein remaining % ≤ 80%) | 20 to 30% | 60 to 80%
CN(C)C(=O)c1cc2cnc(Nc3ccc(N4CCN(Cc5cncc(C6CCC(=O)NC6=O)c5)CC4)cn3)nc2n1C1CCCC1 (centres unmarked) [GT-07479, 7-cyclopentyl-2-((5-(4-((5-(2,6-dioxopiperidin-3-yl)pyridin-3-yl)methyl)piperazin-1-yl)pyridin-2-yl)amino)-N,N-dimethyl-7H-pyrrolo[2,3-d]pyrimidine-6-carboxamide] | – | A (A is defined as 0% ≤ substrate protein remaining % ≤ 80%) | A (A is defined as 0% ≤ substrate protein remaining % ≤ 80%) | 53 to 60% | 80 to 100%
CC(=O)c1c(C)c2cnc(Nc3ccc(N4CCN(Cc5cc(N6CCC(=O)NC6=O)ncc5F)CC4)cn3)nc2n(C2CCCC2)c1=O [GT-07480, 1-(4-((4-(6-((6-acetyl-8-cyclopentyl-5-methyl-7-oxo-7,8-dihydropyrido[2,3-d]pyrimidin-2-yl)amino)pyridin-3-yl)piperazin-1-yl)methyl)-5-fluoropyridin-2-yl)dihydropyrimidine-2,4(1H,3H)-dione] | – | A (A is defined as 0% ≤ substrate protein remaining % ≤ 80%) | A (A is defined as 0% ≤ substrate protein remaining % ≤ 80%) | – | –
CC(=O)c1c(C)c2cnc(Nc3ccc(N4CCN(Cc5ccnc(N6CCC(=O)NC6=O)c5)CC4)cn3)nc2n(C2CCCC2)c1=O [GT-07481, 1-(4-((4-(6-((6-acetyl-8-cyclopentyl-5-methyl-7-oxo-7,8-dihydropyrido[2,3-d]pyrimidin-2-yl)amino)pyridin-3-yl)piperazin-1-yl)methyl)pyridin-2-yl)dihydropyrimidine-2,4(1H,3H)-dione] | – | A (A is defined as 0% ≤ substrate protein remaining % ≤ 80%) | A (A is defined as 0% ≤ substrate protein remaining % ≤ 80%) | – | –
CC(=O)c1c(C)c2cnc(Nc3ccc(N4CCN(Cc5cnc(N6CCC(=O)NC6=O)cn5)CC4)cn3)nc2n(C2CCCC2)c1=O [GT-07827, 1-(5-((4-(6-((6-acetyl-8-cyclopentyl-5-methyl-7-oxo-7,8-dihydropyrido[2,3-d]pyrimidin-2-yl)amino)pyridin-3-yl)piperazin-1-yl)methyl)pyrazin-2-yl)dihydropyrimidine-2,4(1H,3H)-dione] | – | A (A is defined as 0% ≤ substrate protein remaining % ≤ 80%) | A (A is defined as 0% ≤ substrate protein remaining % ≤ 80%) | – | –
CN(C)C(=O)c1cc2cnc(Nc3ccc(N4CCN(Cc5cc(N6CCC(=O)NC6=O)cnc5F)CC4)cn3)nc2n1C1CCCC1 [GT-07830, 7-cyclopentyl-2-((5-(4-((5-(2,4-dioxotetrahydropyrimidin-1(2H)-yl)-2-fluoropyridin-3-yl)methyl)piperazin-1-yl)pyridin-2-yl)amino)-N,N-dimethyl-7H-pyrrolo[2,3-d]pyrimidine-6-carboxamide] | – | A (A is defined as 0% ≤ substrate protein remaining % ≤ 80%) | A (A is defined as 0% ≤ substrate protein remaining % ≤ 80%) | 30 to 40% | 60 to 80%
CN(C)C(=O)c1cc2cnc(Nc3ccc(N4CCN(Cc5cnc(N6CCC(=O)NC6=O)cn5)CC4)cn3)nc2n1C1CCCC1 [GT-07831, 7-cyclopentyl-2-((5-(4-((5-(2,4-dioxotetrahydropyrimidin-1(2H)-yl)pyrazin-2-yl)methyl)piperazin-1-yl)pyridin-2-yl)amino)-N,N-dimethyl-7H-pyrrolo[2,3-d]pyrimidine-6-carboxamide] | – | A (A is defined as 0% ≤ substrate protein remaining % ≤ 80%) | A (A is defined as 0% ≤ substrate protein remaining % ≤ 80%) | – | –
CC(=O)c1c(C)c2cnc(Nc3ccc(N4CCN(Cc5cc(N6CCC(=O)NC6=O)cnc5F)CC4)cn3)nc2n(C2CCCC2)c1=O [GT-07832, 1-(5-((4-(6-((6-acetyl-8-cyclopentyl-5-methyl-7-oxo-7,8-dihydropyrido[2,3-d]pyrimidin-2-yl)amino)pyridin-3-yl)piperazin-1-yl)methyl)-6-fluoropyridin-3-yl)dihydropyrimidine-2,4(1H,3H)-dione] | – | A (A is defined as 0% ≤ substrate protein remaining % ≤ 80%) | A (A is defined as 0% ≤ substrate protein remaining % ≤ 80%) | – | –
